The target of one assay is T1, D2 receptors (Bos taurus, UniProt P20288).
T1 construct: homogenized and washed membrane preparations from bovine anterior pituitary; from tissue; host or cells: bovine anterior pituitary membranes
Kind of assay: D2 activity - competition for 3H-spiroperidol binding in bovine anterior pituitary membranes. To be noted: for Kb: competition with 3H-spiroperidol (approximately .25 nM), bovine anterior pituitary membranes, figure in parentheses = number of tests, read-out: D2 (KBind, KB); for D2 to D1 ratios: selectivity ratio from the D1 and D2 binding data of Tables I and II, n to 1 = D2 selective, 1 to n = D1 selective. The method, then: A) D2 Activity - Competition for ^3H-Spiroperidol in Bovine Anterior Pituitary Tissue. Test Procedure
The assay was performed using homogenized and washed membrane preparations from bovine anterior pituitary. Incubation proceeded for 20 minutes at 37° in 50 mM Tris-HCI, pH 7.4, containing 10 mM magnesium sulfate, 2 mM ethylenediamine tetra-acetic acid and 0.1 % ascorbate. The membrane- bound radioactivity was trapped by rapid filtration over glass fiber (GF/C) filters. In each experiment, the amount of ^3H-spiroperidol bound was determined in the absence (total) and presence (non-specific) of 10^-6M (+)-butaclamol, the difference yielding specific ^3H-spiroperidol binding. The ability of each compound to compete with ^3H-spiroperidol (approximately .25 nM) was tested at concentrations of 10-^7 and 10-^5.

A further assay has as its system a2. Briefly: Clonidine binding protocol (a2 activity).
The target in the next assay is T2, D1 receptors (Rattus norvegicus, UniProt P18901).
T2 construct: homogenized and washed membrane preparations from rat caudate nuclei; from tissue; host or cells: rat caudate nuclei (striatum) membranes
Briefly: D1 activity - competition for 3H-fenoldopam binding in rat striatum (caudate) membranes. The method, then:
B) D1 Activity - Competition for ^3H-Fenoldopam in Rat Striatum Tissue. Test Procedure
The assay was performed using homogenized and washed membrane preparations from rat caudate nuclei. Tissues were preincubated for 15 min at 37° in 50 mM Tris-HCI, pH 7.4, 10 mM magnesium sulfate, 2 mM ethylenediamine tetra-acetic acid and 0.1 % ascorbate. The binding assay was then carried out in the above buffer also containing 10 µm pargyline, ^3H-fenoldopam and test compounds. The membrane- bound radioactivity was trapped by rapid filtration over glass fiber (GF/C) filters. In each experiment the amount of ^3H-fenoldopam bound was determined in the absence (total) and presence (non-specific) of 10^-6M (+)-butaclamol, the difference yielding specific ^3H-fenoldopam binding. The ability of each compound to compete with ^3H-fenoldopam (approximately 2.0 nM) was tested at concentrations of 10-^7 and 10^-6M.

For a further assay, the system named is rabbit ear artery. Kind of assay: Standard rabbit ear artery protocol for pre-junctional dopaminergic activity. To be noted: ED50 for Compound D.
Assay [1] deals with spontaneous hypertensive rat. Briefly: Natriuretic activity in the spontaneous hypertensive rat protocol. It counts as in vivo. The note with it: at a hypotensive dose (Compound G: 3.12 mg/kg i.p.).
The mark [2] stands for this setting: competition with 3H-fenoldopam (approximately 2.0 nM), rat caudate membranes, figure in parentheses = number of tests, read-out: D1 (KBind, KB).

Experimental findings from patent EP0209275B1, “Benz-trisubstituted 2-aminotetralins” (SMITHKLINE BECKMAN CORPORATION, priority 1985, dated 1987) are described below.

pEC50: −log10 of the molar value. Like-named read-outs stand apart in the source and are kept apart here.

T2 sequence (P18901 whole entry): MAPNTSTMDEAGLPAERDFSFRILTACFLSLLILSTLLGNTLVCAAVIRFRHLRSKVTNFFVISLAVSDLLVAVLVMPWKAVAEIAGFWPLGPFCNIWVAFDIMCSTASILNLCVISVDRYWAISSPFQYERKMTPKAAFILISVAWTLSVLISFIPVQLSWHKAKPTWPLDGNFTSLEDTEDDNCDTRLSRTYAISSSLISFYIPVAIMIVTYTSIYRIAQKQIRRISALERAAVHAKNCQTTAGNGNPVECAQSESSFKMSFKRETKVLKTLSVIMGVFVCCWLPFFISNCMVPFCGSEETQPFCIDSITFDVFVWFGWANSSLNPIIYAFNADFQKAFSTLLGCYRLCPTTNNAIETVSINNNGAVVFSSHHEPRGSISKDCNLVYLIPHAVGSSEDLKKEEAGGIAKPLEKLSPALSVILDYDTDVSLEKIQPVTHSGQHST
T1 sequence (P20288 whole entry): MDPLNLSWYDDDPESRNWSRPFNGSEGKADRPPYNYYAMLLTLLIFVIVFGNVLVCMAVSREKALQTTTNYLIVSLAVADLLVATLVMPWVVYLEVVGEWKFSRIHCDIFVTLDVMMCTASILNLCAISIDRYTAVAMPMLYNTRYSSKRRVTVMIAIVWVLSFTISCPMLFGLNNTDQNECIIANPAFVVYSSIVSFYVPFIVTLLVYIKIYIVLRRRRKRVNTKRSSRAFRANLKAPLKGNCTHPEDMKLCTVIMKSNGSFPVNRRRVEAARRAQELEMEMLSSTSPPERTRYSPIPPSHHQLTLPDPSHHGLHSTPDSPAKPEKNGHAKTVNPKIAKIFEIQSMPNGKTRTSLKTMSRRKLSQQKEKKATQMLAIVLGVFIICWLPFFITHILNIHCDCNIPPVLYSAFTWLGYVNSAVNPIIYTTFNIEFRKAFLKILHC

With `NC1CCc2c(cc(O)c(O)c2Cl)C1` (stereo not shown) [Compound F, 5-Chloro-6,7-dihydroxy-2-aminotetralin], the Kb at D2 receptors came to 470 nM; at D1 receptors (setting [2]) it was 640 nM. Further, in the assay on a2, the a2 activity entry was “demonstrated a2 activity”. In the assay on rabbit ear artery, this compound had a pEC50 of 7.30.

Turning to `NC1CCc2cc(O)c(O)cc2C1` (stereo not shown) [ADTN, 6,7-Dihydroxy-2-aminotetralin, reference compound], the “D2 to D1 ratios” value at D2 receptors is 1 to 3. For the same compound, in assay [1], the natriuretic activity entry was “inactive”. In the assay on a2, the a2 activity result was “demonstrated a2 activity”.

On to `Oc1ccc(CCNC2CCc3cc(O)c(O)c(Cl)c3C2)cc1` (stereo not shown) [B, 8-Chloro-6,7-dihydroxy-2-(4-hydroxyphenethylamino)tetralin], for which the Kb was 405 nM at D2 receptors and 1450 nM on D1 receptors (setting [2]).

For the compound `NC1CCc2c(cc(O)c(O)c2F)C1` (stereo not shown) [Compound D, 5-Fluoro-6,7-dihydroxy-2-aminotetralin], the results for the Kb on D2 receptors and at D1 receptors (setting [2]) were 520 nM and 72 nM, respectively. On D2 receptors, the “D2 to D1 ratios” value is given as 1 to 7. In addition, the a2 activity result in the assay on a2 is reported as “demonstrated a2 activity”. In the assay on rabbit ear artery, this compound showed a pEC50 of 8.67.

For `NC1CCc2cc(O)c(O)c(Cl)c2C1` (stereo not shown) [Compound G, 8-Chloro-6,7-dihydroxy-2-aminotetralin], on D2 receptors, the Kb came to 3160 nM and the “D2 to D1 ratios” value was 1 to 80. The natriuretic activity result in assay [1] was “potent natriuretic activity”. In addition, the a2 activity result in the assay with a2 was “demonstrated a2 activity”. Besides, the Kb at D1 receptors was determined as 43 nM. The compound also showed a pEC50 in the assay with rabbit ear artery of 6.29.

In the case of `NC1CCc2c(ccc(O)c2Cl)C1` (stereo not shown) [O, reference compound], the Kb was 11600 nM on D2 receptors and greater than 10000 nM at D1 receptors (setting [2]).

`CCCN(CCC)C1CCc2cc(O)c(O)c(Cl)c2C1` (stereo not shown) [C, 8-Chloro-6,7-dihydroxy-2-di-n-propyl aminotetralin]: the Kb at D2 receptors was found to be 240 nM; on D1 receptors (setting [2]), 620 nM.

In the case of `NC1CCc2cc(O)c(O)c(F)c2C1` (stereo not shown) [Compound E, 8-Fluoro-6,7-dihydroxy-2-aminotetralin], at D2 receptors, the Kb is 1270 nM and the “D2 to D1 ratios” value was 1 to 27. For the same compound, in the assay on a2, the a2 activity entry was “demonstrated a2 activity”. At D1 receptors (setting [2]), the Kb was found to be 62 nM. The negative logarithm of the EC50 (pEC50) with rabbit ear artery is 8.30.

In the case of `NC1CCc2cc(O)c(Cl)cc2C1` (stereo not shown) [N, reference compound], the Kb on D2 receptors was determined as 4470 nM; on D1 receptors (setting [2]), 1970 nM.

Regarding `NC1CCc2cc(F)c(O)cc2C1` (stereo not shown) [L, reference compound], the Kb was 660 nM on D2 receptors and 370 nM on D1 receptors (setting [2]).

For the compound `CCCN(CCc1ccc(O)cc1)C1CCc2cc(O)c(O)c(Cl)c2C1` (stereo not shown) [A, 8-Chloro-6,7-dihydroxy-2-[N-(n-propyl)-N-(4-hydroxyphenethyl)-amino] tetralin], the Kb at D2 receptors turned out to be 33 nM; on D1 receptors (setting [2]), 270 nM.

In the case of `CCCN(CCC)C1CCc2cc(Cl)c(O)cc2C1` (stereo not shown) [M, reference compound], the results for the Kb at D2 receptors and at D1 receptors (setting [2]) were 1630 nM and 4710 nM, respectively.
